Measurements reported in US10981911B2, “Imidazopyrrolopyridine as inhibitors of the JAK family of kinases” (Janssen Pharmaceutica NV, priority 2016, dated 2021).

Experiments:
JAK1-JH1JH2 = JAK1-JH1JH2 (Homo sapiens (Human), UniProt P23458); assay: Enzymatic inhibition assay (RapidFire HTMS), JAK1; format: biochemical; conditions: 12.5 μM ATP, 200 μM substrate; read-out: JAK1-JH2JH1 IC50
Summary of the method: (§1)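 Quenched with 0.5% TFA plus internal-standard peptide; phosphorylated product quantified by RapidFire C4 SPE–ESI-MS, 11-point 1:3 or 1:4 dilutions in duplicate.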

JAK2-JH1JH2 = JAK2-JH1JH2 (Homo sapiens (Human), UniProt O60674); assay: Enzymatic inhibition assay (RapidFire HTMS), JAK2; format: biochemical; conditions: 30 μM ATP, 40 μM substrate
JAK2-JH1JH2, sequence (O60674 532-1132): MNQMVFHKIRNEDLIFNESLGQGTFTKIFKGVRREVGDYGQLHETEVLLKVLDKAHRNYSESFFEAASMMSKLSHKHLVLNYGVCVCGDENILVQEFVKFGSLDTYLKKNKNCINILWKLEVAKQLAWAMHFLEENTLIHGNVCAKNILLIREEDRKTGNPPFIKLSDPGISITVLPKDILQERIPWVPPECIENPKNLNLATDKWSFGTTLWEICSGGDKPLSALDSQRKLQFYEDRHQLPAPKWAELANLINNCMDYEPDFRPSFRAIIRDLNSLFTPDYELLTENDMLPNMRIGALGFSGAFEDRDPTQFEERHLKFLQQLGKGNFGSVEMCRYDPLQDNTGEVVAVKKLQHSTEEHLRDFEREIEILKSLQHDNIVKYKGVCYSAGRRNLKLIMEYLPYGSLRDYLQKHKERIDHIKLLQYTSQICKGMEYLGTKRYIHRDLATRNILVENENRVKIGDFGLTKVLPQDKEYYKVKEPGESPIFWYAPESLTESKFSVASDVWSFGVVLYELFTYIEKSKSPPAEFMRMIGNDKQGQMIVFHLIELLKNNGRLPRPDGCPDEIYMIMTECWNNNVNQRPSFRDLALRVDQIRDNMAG
Summary of the method: as §1

JAK3-JH1JH2 = JAK3-JH1JH2 (Homo sapiens (Human), UniProt P52333); assay: Enzymatic inhibition assay (RapidFire HTMS), JAK3; format: biochemical; conditions: 150 μM ATP, 40 μM substrate
JAK3-JH1JH2, sequence (P52333 512-1124): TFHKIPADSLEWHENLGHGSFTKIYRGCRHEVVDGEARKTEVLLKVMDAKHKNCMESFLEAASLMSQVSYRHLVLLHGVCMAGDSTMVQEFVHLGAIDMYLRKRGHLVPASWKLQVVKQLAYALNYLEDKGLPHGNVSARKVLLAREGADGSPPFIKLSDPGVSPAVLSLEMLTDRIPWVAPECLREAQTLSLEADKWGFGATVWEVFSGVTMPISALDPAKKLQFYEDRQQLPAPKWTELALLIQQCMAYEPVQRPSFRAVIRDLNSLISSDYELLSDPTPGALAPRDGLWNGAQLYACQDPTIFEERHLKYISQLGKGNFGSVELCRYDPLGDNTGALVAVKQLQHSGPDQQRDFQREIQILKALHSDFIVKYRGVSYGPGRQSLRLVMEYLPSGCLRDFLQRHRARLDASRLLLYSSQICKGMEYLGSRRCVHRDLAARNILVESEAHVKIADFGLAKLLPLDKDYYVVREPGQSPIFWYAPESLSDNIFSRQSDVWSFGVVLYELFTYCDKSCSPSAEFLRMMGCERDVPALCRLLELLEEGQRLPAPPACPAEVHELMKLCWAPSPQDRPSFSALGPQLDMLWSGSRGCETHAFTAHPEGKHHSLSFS
Summary of the method: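 JAK3 JH1JH2 reaction incubated 45 min at 25 °C, then quenched with 0.5% TFA containing 0.15 μM internal standard peptide. Phosphopeptide product measured by RapidFire C4 SPE–ESI MS (positive mode); inhibition from product decrease versus uninhibited enzyme, 11-point 1:3 or 1:4 dilutions in duplicate.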

[1] = In vivo intracolonic (i.c.) dosing: plasma and colon tissue concentrations (Protocol 3); design: species or system female C57BL/6 mice; conditions: mice; for concentration at 4 h: colon, read-out: Colon Concentration After i.c. Dosing, Mean
Description: Plasma and colon concentration results were obtained by following Protocol 1 using venipuncture of dorsal metatarsal vein bleed for Compounds (B), (C), and Examples 10 and 74. Plasma and colon concentration results were obtained by following Protocol 2 using retro-orbital bleed for Compounds (A), and Examples 1, and 3-5 and Protocol 2 using venipuncture of the dorsal metatarsal vein for Examples 2, 22, 34, 38, 55, and 85. Plasma and colon concentration results were obtained by following Protocol 3 for Examples 1, 3 and 4. These protocols are described below under the heading In vivo Studies.
Intracolonic (IC) dose group: Following anesthesia with isoflurane by inhalation, three non-fasted female C57BL/6 mice were administered the compound intracolonically through a small incision in the abdominal wall using a syringe and needle at a dose of 5 mg/kg as a solution in 20% HPβCD at a dose volume of 1 mL/kg. Blood samples were collected at 0.5, 2, and 4 h post dose via retro-orbital bleed. Blood samples were collected into tubes containing anticoagulant (Heparin-Na) and placed on wet ice. The plasma fraction was separated by centrifugation and frozen at −20° C. for up to 4 h and −80° C. after 4 h unless analyzed shortly after sample collection. Colon samples were collected at 4 h post dose. From 2 cm below the cecum, a 4-cm sample of the colon was dissected, cut open on the longitudinal axis, and the solid contents removed by flushing with 2 mL of saline. The colon was further washed by putting it in 5 mL of saline and shaken for 5 seconds. The colon sample was then patted dry, weighed, and homogenized as 1 part tissue (g) to 4 parts HPLC grade water (mL). Concentrations of the compound in plasma and colon homogenate were determined using a qualified liquid chromatography-triple quadrupole mass spectrometry (LC-MS/MS) method. This protocol was used to evaluate IC dosing of the following test compounds: Examples 1, 3, and 4.

[2] = female, C57BL/6, mouse, other: intracolonic (i.c.), 5 mg/kg i.c.
[3] = female, C57BL/6, mouse, plasma, other: intracolonic (i.c.), 5 mg/kg i.c., read-out: Plasma Concentration After i.c. Dosing, Mean

JAK1-JH1JH2, sequence (P23458 574-1154): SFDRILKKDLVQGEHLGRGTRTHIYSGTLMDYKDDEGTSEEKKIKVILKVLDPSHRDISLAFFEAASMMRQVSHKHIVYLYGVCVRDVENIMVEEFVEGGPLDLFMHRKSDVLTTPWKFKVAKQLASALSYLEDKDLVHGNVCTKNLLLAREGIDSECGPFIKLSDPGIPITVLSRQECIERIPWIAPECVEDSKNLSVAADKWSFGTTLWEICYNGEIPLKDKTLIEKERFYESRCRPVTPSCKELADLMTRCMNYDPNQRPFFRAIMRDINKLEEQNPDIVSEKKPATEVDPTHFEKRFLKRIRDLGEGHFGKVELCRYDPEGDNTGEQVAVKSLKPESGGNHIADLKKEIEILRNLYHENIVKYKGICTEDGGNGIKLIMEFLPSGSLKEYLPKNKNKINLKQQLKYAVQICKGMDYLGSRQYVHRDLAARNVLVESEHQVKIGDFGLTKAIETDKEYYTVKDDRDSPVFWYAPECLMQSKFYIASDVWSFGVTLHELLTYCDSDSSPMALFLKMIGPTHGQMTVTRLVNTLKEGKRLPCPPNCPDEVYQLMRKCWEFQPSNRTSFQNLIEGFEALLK

Row | Structure (SMILES) | IC50 (JAK1-JH1JH2) | IC50 (JAK2-JH1JH2) | IC50 (JAK3-JH1JH2) | concentration at 4 h [1, 2] | concentration at 0.5 h [1, 3] | systemic exposures after i.c. dosing [1] | concentration at 2 h ([1]; female, C57BL/6, mouse, plasma, other: intracolonic (i.c.), 5 mg/kg i.c., Time = 2 h, read-out: Plasma Concentration After i.c. Dosing, Mean)
1 | CC(C)(O)CNC(=O)Cc1nc2cnc3[nH]ccc3c2n1[C@H]1CC[C@H](CC#N)CC1 [Ex. 1, 2-(1-((1r,4r)-4-(Cyanomethyl)cyclohexyl)-1,6-dihydroimidazo[4,5-d]pyrrolo[2,3-b]pyridin-2-yl)-N-(2-hydroxy-2-methylpropyl)acetamide] | 0.3 nM | 8.2 nM | 87.8 nM | 681 ng/g | 2.5 ng/mL | low systemic exposures | –
2 | N#CC[C@H]1CC[C@H](n2c(CC(=O)NCC3CC3)nc3cnc4[nH]ccc4c32)CC1 [Ex. 3, 2-(1-((1r,4r)-4-(Cyanomethyl)cyclohexyl)-1,6-dihydroimidazo[4,5-d]pyrrolo[2,3-b]pyridin-2-yl)-N-(cyclopropylmethyl)acetamide] | – | – | – | 228 ng/g | 1.5 ng/mL | low systemic exposures | –
3 | N#CCCNC(=O)Cc1nc2cnc3[nH]ccc3c2n1[C@H]1CC[C@H](CC#N)CC1 [Ex. 4, N-(2-Cyanoethyl)-2-(1-((1r,4r)-4-(cyanomethyl)cyclohexyl)-1,6-dihydroimidazo[4,5-d]pyrrolo[2,3-b]pyridin-2-yl)acetamide] | – | – | – | 26.1 ng/g | 3.8 ng/mL | low systemic exposures | 2.5 ng/mL
4 | CC(C)(C#N)CNC(=O)Cc1nc2cnc3[nH]ccc3c2n1[C@H]1CC[C@H](CC#N)CC1 [Ex. 22, N-(2-Cyano-2-methylpropyl)-2-(1-((1r,4r)-4-(cyanomethyl)cyclohexyl)-1,6-dihydroimidazo[4,5-d]pyrrolo[2,3-b]pyridin-2-yl)acetamide] | 0.1 nM | 5.4 nM | 93.6 nM | – | – | – | –
5 | N#CC[C@H]1CC[C@H](n2c(CC(=O)NCC3(O)CCC3)nc3cnc4[nH]ccc4c32)CC1 [Ex. 34, 2-(1-((1r,4r)-4-(Cyanomethyl)cyclohexyl)-1,6-dihydroimidazo[4,5-d]pyrrolo[2,3-b]pyridin-2-yl)-N-((1-hydroxycyclobutyl)methyl)acetamide] | 0.2 nM | 3.1 nM | 42.5 nM | – | – | – | –
6 | N#CCC12CCC(NC(=O)Cc3nc4cnc5[nH]ccc5c4n3[C@H]3CC[C@H](CC#N)CC3)(CC1)C2 [Ex. 55, N-(4-(Cyanomethyl)bicyclo[2.2.1]heptan-1-yl)-2-(1-((1r,4r)-4-(cyanomethyl)cyclohexyl)-1,6-dihydroimidazo[4,5-d]pyrrolo[2,3-b]pyridin-2-yl)acetamide] | 0.2 nM | 2.9 nM | 59.6 nM | – | – | – | –
7 | N#CC[C@H]1CC[C@H](n2c(CC(=O)NCC3(O)CC3)nc3cnc4[nH]ccc4c32)CC1 [Ex. 85, 2-(1-((1r,4r)-4-(Cyanomethyl)cyclohexyl)-1,6-dihydroimidazo[4,5-d]pyrrolo[2,3-b]pyridin-2-yl)-N-((1-hydroxycyclopropyl)methyl)acetamide] | 0.4 nM | 6.2 nM | 68.2 nM | – | – | – | –
